Data on two compounds can be found in patent publication US20220008425A1, “Pharmaceutical Composition for Treating B-Cell Lymphoma” (FUNDAN UNIVERSITY SHANGHAI CANER CENTER, priority 2018, published 2022).

Data set [1] has as its system acute promyelocytic leukemia (APL). The conditions noted are these: APL patients; ATRA alone; cited from earlier work.
Data set [2] deals with NU-DUL-1-RCHO cells. Particulars: 48 hours. Here is the method: Further, we constructed LY8 and NU-DUL-1 cells resistant to chemotherapeutic drugs. Briefly, LY8-ORI and NU-DUL-1-ORI cells were treated with doxorubicin (Selleck Chemicals, Houston, Tex.) and vincristine (Selleck Chemicals, Houston, Tex.) at a clinical ratio of 50:1.4 by increasing the concentration. […] These cells were then treated with 2 μg/mL of 4-hydroperoxycyclophosphamide (4-HC) (Santa Cruz Biotechnology, Inc., Santa Cruz, Calif.) every 21 days for 3 cycles. The obtained CHO-resistant cells are referred to as LY8-CHO and NU-DUL-1-CHO, respectively. CHO-resistant cells were treated with doxorubicin, vincristine, and 4-HC every 22 days to maintain drug tolerance to CHO. […] To maintain RCHO resistance, LY8-RCHO cells and NU-DUL-1-RCHO cells were treated with 32 μg/mL of rituximab containing 20% (v/v) of NHS every 22 days, followed by treatment with doxorubicin, vincristine, and 4-HC. After 48 hours of treatment with doxorubicin, vincristine and 4-HC, drug resistance to CHO and RCHO was determined by a series of CCK-8 assays.
Cells were seeded in a 96-well plate at a density of 1×10^4/100 μL/well. Cells were pretreated with IPI-145, abemaciclib, AZD4547, PF-573228, R788, or saracatinib at increasing concentrations with or without CHO for 48 hours prior to performing CytoTox-Glo™ cytotoxicity assay. We performed cytotoxicity assay by using a CytoTox-Glo™ cytotoxicity assay kit (Promega Inc., Madison, Wis.) according to their instructions. Briefly, 50 μL of CytoTox-Glo™ cytotoxicity assay reagent was added to all wells, mixed by orbital shaking, and then incubated for 15 minutes at room temperature. Luminescence of experimental dead cells was detected with a Synergy HT microplate reader (BioTek, Biotek Winooski, Minn.), wherein 50 μL of lysate was added to all wells, mixed and incubated for 15 minutes at room temperature prior to detection of total luminescence. Cytotoxicity was calculated according to the following formula: Cytotoxicity (%)=Experimental dead cell luminescence/Total luminescence×100%.

For data set [3], the system named is NU-DUL-1-RCHO cells. Briefly: CDC assay (rituximab-mediated complement-dependent cytotoxicity). It counts as cell-based, human. Particulars: pre-treated with inhibitor 24 hours, then rituximab and 20% NHS 2 hours. Here is the method:
We constructed LY8 cells and NU-DUL-1 cells that are resistant to rituximab-mediated complement-dependent cytotoxicity (CDC). Briefly, original LY8 (LY8-ORI) cells and original NU-DUL-1 (NU-DUL-1-ORI) cells were treated with rituximab containing 20% (v/v) of NHS (Roche, Basel, Switzerland) with a concentration of gradually increasing from 4 μg/mL to 32 μg/mL to construct drug-resistant cells. […] Cytolysis induced by CDC was evaluated by detection of positive cells stained with propidium iodide (PI) through fluorescence activated cell sorting (FACS).

In data set [4] the test system is AKT phosphorylation, SOX2, FGFR1/2 and CSC-associated molecules in NU-DUL-1-RCHO cells. Put plainly: Immunoblot analysis. It counts as cell-based, human. Background: A western blot detects proteins with antibodies after separation by electrophoresis.
Data set [5] relates to NU-DUL-1-RCHO cells. Briefly: Aldefluor analysis (ALDH1+ cells). In kind it is cell-based, human. Here is the method:
ALDH1 is a selectable marker for a variety of normal and cancer stem cells, including hematopoietic stem cells. Therefore, we assessed the number of cancer stem cells in hematopoietic malignancies by detecting ALDH1 positive cells. As previously described, we used an ALDEFLUOR™ kit (StemCell Technologies, Vancouver, BC, CA) to detect populations with high ALDH1 activity. Briefly, 1×10^6 cells were suspended in 1 mL of assay buffer containing 1 μM of BAAA, a substrate of […]. Suspended cells were then equally divided into two samples, one as a negative control and the other as a test sample. To form the negative control, […] of DEAB, a specific ALDH inhibitor, was added to one equally-divided sample. Cells were then incubated at 37° C. for 30 minutes prior to flow cytometry analysis.

In data set [6] the test system is NU-DUL-1-RCHO cells. Put plainly: EdU cell proliferation assay. It counts as cell-based, human. The conditions noted are these: 1 μM, time point (48 or 120 hours) not given. The protocol: RCHO-resistant DLBCL cells were pretreated with duvelisib, abemaciclib, or AZD4547 at a concentration of 1 μM for 48 or 120 hours prior to EdU assay. For 120 hours of the study, the medium was replaced with a fresh medium containing 1 μM of inhibitor at 48 hours. EdU cell proliferation assay was performed by using a cell-light EdU Apollo643 in vitro flow cytometry kit (RiboBio Inc., Guangzhou, China) according to its instructions. Next, we assayed EdU staining positive cells on a Cytomics FC500 MPL flow cytometer (Beckman Coulter, Brea, Calif.).

A further data set has as its system NU-DUL-1-RCHO-Luc cells. Briefly: Transplantation model, bioluminescence tumor growth and survival. In kind it is in vivo. The conditions noted are these: SCID mice bearing NU-DUL-1-RCHO-Luc cells. An excerpt:
Construction of a transplantation model: we transduced LY8-RCHO cells and NU-DUL-1-RCHO cells with lentiviruses overexpressing the firefly luciferase gene to generate stable cells expressing firefly luciferase, referred to as LY8-RCHO-Luc cells and NU-DUL-1-RCHO-Luc cells, respectively. 8-week-old female SCID mice were purchased from SLAC (Shanghai laboratory animal center). The LY8-RCHO-Luc cells and NU-DUL-1-RCHO-Luc cells were resuspended in PBS prior to intraperitoneal injection of 1.5×10^7 cells per mouse. After intraperitoneal injection of the LY8-RCHO-Luc cells, mice were randomized into 6 groups (7 mice in every group) and given saline, R-CHOP, duvelisib, abemaciclib, R-CHOP+duvelisib, and R-CHOP+abemaciclib, respectively. Mice inoculated with the NU-DUL-1-RCHO-Luc cells were randomly divided into 6 groups (7 mice in every group), and were given saline, R-CHOP, duvelisib, AZD4547, R-CHOP+duvelisib, and R-CHOP+AZD4547, respectively. The drug dosing method based on one course of clinical use is shown in Table 1; the R-CHOP regimen was clinically used to treat DLBCL, while duvelisib, abemaciclib, and AZD4547 were tested in clinical trials (associated NCT numbers are NCT02576275, NCT01739309, and […], respectively). Tumor growth was monitored by bioluminescence at day 50 and day 90 after inoculation. For in vivo luminescence imaging, D-luciferin (Promega, Madison, Wis.) was intraperitoneally injected into mice (150 mg/kg). After 10 minutes, the mice were anesthetized by intraperitoneal injection of pentobarbital (50 mg/kg) and then their bioluminescence intensity was examined by using an In Vivo MS FX PRO system (Bruker Corporation, Billerica, Mass.). Luminescence images were captured with an exposure time of 30 seconds and the signal intensity of the tumor was measured by using Bruker MI software. The survival time of each mouse was recorded. Surviving mice were euthanized and dissected 120 days after inoculation and no intraperitoneal tumors were found. Tumor tissue was collected from moribund mice and fixed with 4% formalin. All animal experiments were performed in strict accordance with the experiment protocol approved by the animal ethics committee of Shanghai school of medicine of Fudan university.

The subject of data set [7] is SOX2 in tumor tissues grown from NU-DUL-1-RCHO-Luc cells. Put plainly: SOX2 immunohistochemical staining of tumor tissues from the transplantation model. Particulars: tumors from NU-DUL-1-RCHO-Luc cells; compared with saline control. In kind it is in vivo, SCID mice. From the text: Construction of a transplantation model: we transduced LY8-RCHO cells and NU-DUL-1-RCHO cells with lentiviruses overexpressing the firefly luciferase gene to generate stable cells expressing firefly luciferase, referred to as LY8-RCHO-Luc cells and NU-DUL-1-RCHO-Luc cells, respectively. 8-week-old female SCID mice were purchased from SLAC (Shanghai laboratory animal center). The LY8-RCHO-Luc cells and NU-DUL-1-RCHO-Luc cells were resuspended in PBS prior to intraperitoneal injection of 1.5×10^7 cells per mouse. After intraperitoneal injection of the LY8-RCHO-Luc cells, mice were randomized into 6 groups (7 mice in every group) and given saline, R-CHOP, duvelisib, abemaciclib, R-CHOP+duvelisib, and R-CHOP+abemaciclib, respectively. Mice inoculated with the NU-DUL-1-RCHO-Luc cells were randomly divided into 6 groups (7 mice in every group), and were given saline, R-CHOP, duvelisib, AZD4547, R-CHOP+duvelisib, and R-CHOP+AZD4547, respectively. […] Tumor growth was monitored by bioluminescence at day 50 and day 90 after inoculation. For in vivo luminescence imaging, D-luciferin (Promega, Madison, Wis.) was intraperitoneally injected into mice (150 mg/kg). […] Luminescence images were captured with an exposure time of 30 seconds and the signal intensity of the tumor was measured by using Bruker MI software. The survival time of each mouse was recorded. […]
Tumor tissues from patients or animal models were fixed with 4% formalin, embedded in paraffin and sectioned. […] Immunoreactivity was then detected by using a GTVision III immunohistochemical detection kit (GK500705; Gene Tech Inc., Shanghai, China) according to its instructions. Quantitative scoring of immunostaining for SOX2, p-AKT, CDK6, FGFR1 and FGFR2 was performed on three independent sections under the microscope, according to the formula: score=3 (strong positive)×percentage+2 (medium positive)×percentage+1 (weak positive)×percentage+0 (negative)×percentage.

Entries after “also recorded” stand apart in the source; their conditions may differ.

On to `CC1=C(/C=C/C(C)=C/C=C/C(C)=C/C(=O)O)C(C)(C)CCC1` [ATRA, all-trans retinoic acid], for which, in data set [1], the complete remission rate entry was “about 85%”.

Regarding `COc1cc(CCc2cc(NC(=O)c3ccc(N4C[C@@H](C)N[C@@H](C)C4)cc3)n[nH]2)cc(OC)c1` [AZD4547], the “cytotoxicity (induction of cell death), inhibitor used alone” value in the data set with NU-DUL-1-RCHO cells [2] (inhibitor alone at increasing concentrations) is on record as “negligible effect on induction of cell death; also recorded: only negligible cytotoxicity on drug-resistant cells”. Moreover, in the data set on NU-DUL-1-RCHO cells [2] (inhibitor at increasing concentrations with CHO), the “reversal of resistance to CHO (cytotoxicity of CHO), inhibitor co-treated with CHO” value is “restored sensitivity of RCHO-resistant cells to CHO; also recorded: significantly enhanced cytotoxicity of CHO”. Further, the “effect on resistance to R-mediated CDC” value with NU-DUL-1-RCHO cells [3] was “exacerbates resistance to R-mediated CDC”. Further, the “levels of CSC-associated molecules (OCT4, NANOG, KLF4, c-MYC, CD34, CD133)” value in data set [4] is “also reduced their levels but to a greatly reduced extent compared with duvelisib”. For the same compound, the “proportion of ALDH1+ cells (CSCs)” value with NU-DUL-1-RCHO cells [5] was “significantly reduced ALDH1+ subpopulations in NU-DUL-1-RCHO cells, but to a greatly reduced extent compared with duvelisib”. For the same compound, the “cell proliferation (EdU incorporation)” value with NU-DUL-1-RCHO cells [6] is recorded as “promoted proliferation of NU-DUL-1-RCHO cells due to involvement in inhibition of PI3K/AKT signaling, but to a lesser extent than PI3K inhibition”. In addition, in the data set with NU-DUL-1-RCHO-Luc cells (inhibitor combined with R-CHOP, dosing per Table 1), the “tumor growth (total photon flux)” value is on record as “completely inhibit tumor growth”. Further, the survival time result in the data set on NU-DUL-1-RCHO-Luc cells (inhibitor combined with R-CHOP, experiment ended at day 120) was “prolong the survival time to the end of the experiment at day 120”; with NU-DUL-1-RCHO-Luc cells (regimen or inhibitor used alone, dosing per Table 1), “significantly prolonged the survival time”. Further, the “SOX2 expression level in tumor tissue (IHC)” value in data set [7] was “significantly reduced the expression levels of SOX2 compared with a saline control”.
